In patent publication US11390648B2, “Peptide” (HYSENSBIO, priority 2017, dated 2022):

Tested on: Dspp gene
Assay: Dspp mRNA level in human dental pulp cells treated with peptide (real-time PCR)
Type: cell-based
Settings: hDPCs, peptide 10 μg/ml, 48 hours; ratio relative to Dspp mRNA level of untreated control; GAPDH internal control; triplicate
Method: Human dental pulp cells were separated from wisdom teeth of adults (aged 18-22) at the School of Dentistry, Seoul National University. In detail, all experiments were performed after the approval of the Institutional Review Board and the informed consent from patients. Wisdom teeth were fractured according to a method of Jung HS et al. (J Mol Histol.(2011)) to expose the dental pulps, and dental pulp tissues were separated with forceps. Each of the separated dental pulp tissues was cut into small pieces with a razor blade, put in a 60-mm dish, covered with a coverslip, and then cultured in a Dulbecco's modified Eagle's medium. It has been known that human dental pulp cells can differentiate into odontoblast, osteoblast, cementoblast, and periodontal ligament cells under various conditions (Tissue Eng Part A. 2014 April; 20 (7-8): 1342-51).
Total RNA was extracted from human dental pulp cells (hDPCs), and human bone marrow mesenchymal stem cells (hBMSCs) with TRIzol reagent. 2 μg of the total RNA, 1 μl of reverse transcriptase, and 0.5 μg of oligo (oligo; dT) were used to synthesize cDNA. The synthesized cDNA was used in a real-time polymerase chain reaction. The real-time polymerase chain reaction was performed on an ABI PRISM 7500 sequence detection system (Applied Biosystems) and an SYBR GREEN PCR Master Mix (Takara, Japan). The real-time polymerase chain reaction was performed under conditions of 94° C., 1 min; 95° C., 15 sec; 60° C., 34 sec for 40 cycles. Results were analyzed by a comparative cycle threshold (CT) method. And the used primers are as follows (Table 17).
The human dental pulp cells (hDPCs) cultured in Example 3 were treated with the peptides (concentration of 10 μg/ml) of each group synthesized in Example 1-1, and cultured for 48 hours. Then, mRNA levels of an odontoblast differentiation marker Dspp gene expressed in the human dental pulp cells were measured, and a ratio of the measured Dspp mRNA level relative to a Dspp mRNA level measured in a control group was calculated, respectively (Tables 18 to 33).
The expression level of the Dspp gene was measured through RT-PCR and real-time PCR analysis described in Example 1-4. In this regard, GAPDH gene was used as an internal control. The experiments were performed in triplicate, and then mean values and standard deviations thereof were taken as measured values. The base sequence of the primers is described in Table 17 above.

| Substance | mRNA level of Dspp gene, Mean |
| --- | --- |
| 13 (KYRQKKK; Novel peptide) [compound 13] | 6.655 |
| 97 (KYNQRKK; Novel peptide) [compound 97] | 1.515 |
| 108 (KYNNRRR; Novel peptide) [compound 108] | 1.495 |
| 33 (KYRRRKK; Novel peptide) [compound 33] | 3.615 |
| 46 (KYKRKRK; Novel peptide) [compound 46] | 2.733 |
| 1 (KYQRRKK; Novel peptide) [compound 1] | 7.371 |
| 121 (KYKKRKK; Novel peptide) [compound 121] | 2.024 |
| 78 (KYRNKRK; Novel peptide) [compound 78] | 2.109 |
| 21 (KYKQKKK; Novel peptide) [compound 21] | 7.893 |
| 103 (KYNQKKR; Novel peptide) [compound 103] | 1.737 |
| 62 (KYNKKRK; Novel peptide) [compound 62] | 2.752 |
| 128 (KYKKKRR; Novel peptide) [compound 128] | 1.765 |
| 47 (KYKRKKR; Novel peptide) [compound 47] | 2.439 |
| 58 (KYNKRKR; Novel peptide) [compound 58] | 2.677 |
| 37 (KYRRKKK; Novel peptide) [compound 37] | 3.303 |
| 102 (KYNQKRK; Novel peptide) [compound 102] | 1.855 |
| 115 (KYRKRRK; Novel peptide) [compound 115] | 1.707 |
| 118 (KYRKKRK; Novel peptide) [compound 118] | 2.015 |
| 22 (KYKQKRK; Novel peptide) [compound 22] | 7.412 |
| 2 (KYQRRKR; Novel peptide) [compound 2] | 7.171 |
| 61 (KYNKKKK; Novel peptide) [compound 61] | 1.909 |

| Substance | mRNA level of Dspp gene, Mean |
| --- | --- |
| 81 (KYKNRKK; Novel peptide) [compound 81] | 1.757 |
| 117 (KYRKKKK; Novel peptide) [compound 117] | 1.929 |
| 86 (KYKNKRK; Novel peptide) [compound 86] | 1.736 |
| 29 (KYQQKKK; Novel peptide) [compound 29] | 2.926 |
| 113 (KYRKRKK; Novel peptide) [compound 113] | 1.778 |
| 96 (KYQNKRR; Novel peptide) [compound 96] | 2.011 |
| 68 (KYNRRRR; Novel peptide) [compound 68] | 2.343 |
| 42 (KYKRRKR; Novel peptide) [compound 42] | 2.808 |
| 8 (KYQRKRR; Novel peptide) [compound 8] | 6.531 |
| 36 (KYRRRRR; Novel peptide) [compound 36] | 3.256 |
| 52 (KYQKRRR; Novel peptide) [compound 52] | 1.949 |
| 77 (KYRNKKK; Novel peptide) [compound 77] | 1.939 |
| 31 (KYQQKKR; Novel peptide) [compound 31] | 2.432 |
| 54 (KYQKKRK; Novel peptide) [compound 54] | 1.638 |
| 123 (KYKKRRK; Novel peptide) [compound 123] | 1.837 |
| 17 (KYKQRKK; Novel peptide) [compound 17] | 7.712 |
| 57 (KYNKRKK; Novel peptide) [compound 57] | 2.415 |
| 76 (KYRNRRR; Novel peptide) [compound 76] | 2.394 |
| 94 (KYQNKRK; Novel peptide) [compound 94] | 1.487 |
| 95 (KYQNKKR; Novel peptide) [compound 95] | 1.939 |
| 27 (KYQQRRK; Novel peptide) [compound 27] | 2.213 |
